Results from patent US20200288710A1, “SUBSTITUTED SULPHONAMIDES FOR CONTROLLING ANIMAL PESTS” (BAYER CROPSCIENCE AKTIENGESELLSCHAFT, priority 2016, published 2020).

Assays:
Type in all cases: in vivo
[1] = test system: Tetranychus urticae; assay: Tetranychus urticae spray test, OP-resistant; conditions: foliar, 144 h, bean leaf discs, after 6 days, read-out: efficacy
Description: Tetranychus urticae—Spray Test, OP-Resistant
To produce a suitable preparation of active compound, 1 part by weight of active compound is dissolved using the specified parts by weight of solvent and made up with water containing an emulsifier concentration of 1000 ppm until the desired concentration is attained. To produce further test concentrations, the formulation is diluted with emulsifier-containing water.
Discs of bean leaves (Phaseolus vulgaris) infested with all stages of the greenhouse red spider mite (Tetranychus urticae) are sprayed with an active compound preparation of the desired concentration.
After 6 days, the efficacy in % is determined. 100% means that all the spider mites have been killed; 0% means that no spider mites have been killed.

[2] = test system: Myzus persicae; assay: Myzus persicae spray test (Chinese cabbage leaf discs); conditions: foliar, 120 h, after 5-6 days, read-out: efficacy
Summary of the method: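 Chinese cabbage leaf discs infested with all stages of green peach aphid were sprayed with compound formulated in acetone/DMF and emulsifier-containing water. Efficacy in % was scored after 5-6 days, with 100% meaning all aphids killed and 0% none killed.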

[3] = test system: Meloidogyne incognita; assay: Meloidogyne incognita test; conditions: 336 h, lettuce, after 14 days, read-out: nematicidal efficacy (formation of galls)
Summary of the method: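 Active compound in acetone, diluted with water, added to sand-filled vessels with M. incognita eggs/larvae and lettuce seeds. After 14 days, efficacy scored by root gall formation: 100% = no galls, 0% = galls equal to untreated control.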

[4] = test system: Myzus persicae; assay: Myzus persicae oral test; conditions: 120 h, oral uptake, after 5 days, read-out: efficacy
Summary of the method: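 Compound dissolved in acetone, diluted in water, then mixed 50:150 μl with IPL41 insect medium (33%+15% sugar). Mixed-population green peach aphids feed through a parafilm seal on the solution; mortality scored as % efficacy after 5 days (100% = all killed).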

[5] = test system: Phaedon cochleariae; assay: Phaedon cochleariae spray test; conditions: foliar, 168 h, Chinese cabbage leaf discs, larvae, after 7 days, read-out: efficacy
Summary of the method: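 Compound dissolved in solvent and diluted with water containing 1000 ppm emulsifier to test concentrations. Efficacy read after 7 days as % beetle larvae killed (100% all killed, 0% none).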

[6] = test system: Lucilia cuprina; assay: Lucilia cuprina test; conditions: 48 h, L1 larvae, after 2 days, read-out: efficacy (kill in %)
Description: Lucilia cuprina Test Solvent: dimethyl sulphoxide To produce a suitable preparation of active compound, 10 mg of active compound are mixed with 0.5 ml of dimethyl sulphoxide, and the concentrate is diluted with water to the desired concentration. About 20 L1 larvae of the Australian sheep blowfly (Lucilia cuprina) are transferred into a test vessel containing minced horsemeat and the active compound preparation of the desired concentration. After 2 days, the kill in % is determined. 100% means that all the larvae have been killed; 0% means that no larvae have been killed.

SMILES | pest or weed control at 500 g/ha [1] | pest or weed control at 500 g/ha [2] | pest or weed control at 20 ppm [3] | pest or weed control at 100 g/ha ([2]; 100 g/ha) | pest or weed control at 20 ppm [4] | pest or weed control at 500 g/ha [5] | pest or weed control at 100 ppm [6] | pest or weed control at 4 ppm ([4]; 4 ppm)
Cn1cc(C(=O)NS(=O)(=O)c2ccc(Cl)cc2)nc1-c1c(F)cccc1F [Example 46] | 90% | 90% | 100% |  |  |  |  | 
COc1ccc(Cl)c(S(=O)(=O)NC(=O)c2nc(-c3c(F)cccc3F)nn2C)c1 [Example 406] | 90% |  | 90% |  |  |  |  | 
CCS(=O)(=O)NC(=O)c1cn(C)c(-c2c(Cl)cccc2Cl)n1 [Example 82] | 90% | 90% | 90% |  |  |  |  | 
Cc1ccc(S(=O)(=O)NC(=O)c2cn(C)c(-c3c(F)cccc3F)n2)s1 [Example 351] | 90% |  | 90% | 90% |  |  |  | 
Cc1cc(C(=O)NS(=O)(=O)c2cc(Cl)ccc2Br)nn1-c1ccccc1C(F)(F)F [Example 293] | 100% |  | 90% |  |  |  |  | 
Cc1ccsc1S(=O)(=O)NC(=O)c1cn(C)c(-c2ccccc2Cl)n1 [Example 212] | 90% | 100% | 90% |  | 100% |  |  | 
Cc1ccccc1-c1nc(C(=O)NS(=O)(=O)CC(F)(F)F)cn1C [Example 87] | 90% | 100% |  |  |  |  |  | 
Cn1cc(C(=O)NS(=O)(=O)c2c(Cl)cccc2Cl)nc1-c1cccc(Cl)c1Cl [Example 568] | 90% | 100% | 90% |  | 100% | 83% |  | 
Cn1cc(C(=O)NS(=O)(=O)c2ccccc2Cl)nc1-c1cnccc1Cl [Example 495] | 90% |  | 90% |  |  |  |  | 
CCc1cc(Br)ccc1S(=O)(=O)NC(=O)c1cn(C)c(-c2c(F)cccc2F)n1 [Example 341] |  | 90% | 100% |  | 100% | 100% | 100% | 
Cn1cc(C(=O)NS(=O)(=O)c2ccccc2I)nc1-c1c(F)cccc1F [Example 120] |  | 100% | 90% |  | 100% | 100% | 100% | 
COc1ccc(Cl)c(S(=O)(=O)NC(=O)c2nc(-c3ccccc3Cl)n(C)c2C)c1 [Example 104] | 90% |  | 90% |  | 100% | 100% |  | 
Cn1cc(C(=O)NS(=O)(=O)c2cccc(Cl)c2F)nc1-c1c(F)cccc1F [Example 315] | 90% | 100% | 100% |  | 100% |  |  | 
Cc1ccsc1S(=O)(=O)NC(=O)c1cn(C)c(-c2ncccc2F)n1 [Example 573] | 90% | 90% |  |  | 100% |  |  | 
Cn1cc(C(=O)NS(=O)(=O)c2cccc(Cl)c2Cl)nc1-c1c(F)cccc1F [Example 173] | 90% | 100% | 100% |  | 100% |  |  | 
Cc1cc(C(=O)NS(=O)(=O)c2ccccc2Cl)nn1-c1ccccc1C(F)(F)F [Example 291] | 90% |  | 90% |  |  |  |  | 

SMILES | pest or weed control at 500 g/ha [1] | pest or weed control at 500 g/ha [2] | pest or weed control at 20 ppm [3] | pest or weed control at 100 g/ha ([2]; 100 g/ha) | pest or weed control at 20 ppm [4] | pest or weed control at 500 g/ha [5] | pest or weed control at 100 ppm [6] | pest or weed control at 4 ppm ([4]; 4 ppm)
Cc1cccc(Cl)c1S(=O)(=O)NC(=O)c1cn(C)c(-c2c(F)cccc2F)n1 [Example 364] |  | 100% | 100% |  | 100% | 100% | 100% | 
Cn1nc(-c2c(F)cccc2F)nc1C(=O)NS(=O)(=O)c1ccccc1Cl [Example 407] | 90% |  | 90% |  |  |  |  | 
Cc1cc(S(=O)(=O)NC(=O)c2cn(C)c(-c3ccccc3Cl)n2)c(C)s1 [Example 217] | 100% | 90% | 90% |  | 100% | 83% |  | 
Cn1cc(C(=O)NS(=O)(=O)c2cc(Cl)ccc2Cl)nc1-c1ccccc1Cl [Example 56] |  | 100% | 90% |  | 100% | 100% | 100% | 
Cc1ccc(F)cc1S(=O)(=O)NC(=O)c1cn(C)c(-c2c(F)cccc2F)n1 [Example 397] |  | 100% | 90% |  | 100% | 100% | 100% | 
COc1ccc(C)c(S(=O)(=O)NC(=O)c2cn(C)c(-c3ncccc3Cl)n2)c1 [Example 582] | 90% | 100% | 90% |  |  | 83% |  | 100%
Cn1cc(C(=O)NS(=O)(=O)c2c(Cl)cccc2Cl)nc1-c1c(F)cccc1Cl [Example 108] |  | 100% | 90% |  | 100% | 100% | 95% | 
O=C(NS(=O)(=O)CC(F)(F)F)c1cn(-c2ccccc2)c(-c2ccccc2Cl)n1 [Example 74] | 100% |  |  |  |  |  |  | 
Cc1ccccc1S(=O)(=O)NC(=O)c1cn(C)c(-c2c(F)cccc2F)n1 [Example 27] |  | 100% | 90% |  | 100% | 100% | 100% | 
Cc1cccc(C)c1S(=O)(=O)NC(=O)c1cn(C)c(-c2ccccc2Cl)n1 [Example 218] |  | 100% | 90% |  | 100% | 100% | 100% | 
CCS(=O)(=O)NC(=O)c1nc(-c2ccccc2Cl)n(C)c1C [Example 70] | 90% | 90% |  |  | 100% |  |  | 
CCc1cccc(C)c1S(=O)(=O)NC(=O)c1cn(C)c(-c2c(F)cccc2F)n1 [Example 336] |  | 90% | 100% |  | 100% | 100% | 95% | 
COc1ccc(Br)cc1S(=O)(=O)NC(=O)c1cn(C)c(-c2c(F)cccc2F)n1 [Example 18] |  | 100% | 90% |  | 100% | 100% | 100% | 
CCn1cc(C(=O)NS(=O)(=O)CC)nc1-c1ccccc1Cl [Example 78] | 90% | 90% | 90% |  |  |  |  | 
Cn1cc(C(=O)NS(=O)(=O)c2c(Cl)cccc2Cl)nc1-c1c(Cl)cccc1Cl [Example 102] |  | 100% | 90% |  | 100% | 100% | 100% | 
